Reference: patent US10316057B2, “Tandem facial amphiphiles” (WISCONSIN ALUMNI RESEARCH FOUNDATION, priority 2011, dated 2019)
Counter-ions that a name gives are not always drawn.

Experiments:
[1] = Water solubility and hydrogel formation; format: physicochemical
Method: (§1) TFA-0 forms a hydrogel at concentrations >0.4 wt %, and this compound was not studied further. The other three TFAs are soluble to 5-10 wt % in aqueous media. Critical micelle concentrations (CMC) were determined by monitoring solubilization of a hydrophobic fluorescent dye, […] (Chattopadhyay et al., Anal. Biochem. 1984, 139, 408-412), and the hydrodynamic radii (Rh) of the micelles were determined via dynamic light scattering (DLS). Table 1 compares the data for TFAs with those for DDM, a conventional detergent that is very widely used for MP applications; DDM and the TFAs share maltose as their hydrophilic moieties. CMC values of the three TFAs are smaller than that of DDM, whether CMC is measured in units of mM or wt %.
Several amphiphiles (TFA 1a-10a) were prepared and evaluated for their water solubility and critical micelle concentration (CMC). […] Examples of these TFAs include compounds of Formula VI: […]
These TFAs can be used to prepare hydrogels, which can be used tissue engineering or drug delivery applications. Examples of the generally water-insoluble TFAs include compounds of Formula XX: […]
(§2) Analysis of these TFAs for their CMC values provided the data in Table 3.

[2] = Critical micelle concentration by solubilization of a hydrophobic fluorescent dye; format: physicochemical
Text: The “Critical Micelle Concentration” (CMC) refers to the concentration of a detergent (e.g., an amphiphile as described herein) in an aqueous solution at which the detergent molecules self-assemble into micelles. Below the CMC, detergents are mostly monomeric; above the CMC, micelle concentration increases linearly with detergent concentration. The CMC is dependent upon many factors and is detergent-specific. The CMC of a detergent can be determined experimentally by measuring the solubilization of a water-insoluble dye or fluorophore while varying the concentration of detergent. A CMC may also be determined by measuring the diminution of the surface tension of an aqueous solution as a function of detergent concentration (CMCs determined by either method correlate with each other). The CMC is determined by extrapolating the plot of solubilization vs. concentration (or surface tension vs. concentration) in the two linear regions above and below the CMC. Where the two lines intersect is the CMC. The CMC can also be determined by the method of Nugebauer, J. M. (1990), Methods in Enzymology, 182:239-253.
as §1, §2

[3] = Hydrodynamic radii of micelles by dynamic light scattering (DLS); format: physicochemical; details: 0.5 wt % amphiphile in water, 25° C.; mean ± SD, n = 3
Method: as §1
Each TFA and DDM was dissolved in distilled, deionized (DI) water to obtain 1 mL of a solution containing 0.5 wt % amphiphile. Each solution was filtered through a 0.02 μm filter for DLS measurements. A 100-mW, 532-nm laser (Compass 315M-100, Coherent, Santa Clara, Calif.) illuminated a temperature-controlled glass cell at 25° C. that was filled with a refractive-index matching fluid (decahydronaphthalene, Fisher Scientific, Pittsburgh, Pa.). The scattered light was collected at an angle of 90° for about 30 minutes. Rh values were determined using the integrated dynamics software that analyzes the time scale of the scattered light intensity fluctuations by an autocorrelation function. The autocorrelation functions (ACFs) were obtained using a BI-9000AT digital autocorrelator (Brookhaven Instruments, Holtsville, N.Y.). Measurements were repeated three times.

[4] = tested on: leucine transporter (LeuT WT); assay: LeuT functionality assay ([3H]-Leu binding by scintillation proximity assay); parameters: species or system Aquifex aeolicus; details: higher amphiphile concentration, CMC+0.2 wt %, room temperature
Text: The wild type of bacterial leucine transporter (LeuT WT) was examined because the functional state of this membrane protein is readily assessed by using a scintillation proximity assay (SPA) (Quick et al., Proc. Natl. Acad. Sci. USA 2007, 104, 3603-3608) to monitor binding of radiolabelled leucine. LeuT was initially extracted with DDM and then diluted with amphiphile-containing solutions to generate final TFA concentrations of 0.04 wt % or 0.2 wt % (residual DDM=0.005 wt %). Control samples had 0.05 wt % or 0.2 wt % DDM (overall, the final concentrations were CMC+0.04 wt % or CMC+0.2 wt %).
The wild type of the leucine transporter (LeuT WT) from Aquifex aeolicus was expressed in Escherichia coli essentially as described by Deckert et al. (Nature 392, 353-358 (1998)). The pET16b-LeuT WT-8His plasmid was kindly provided by Dr. Eric Gouaux, Vollum Institute, Portland Oreg. LeuT WT was extracted from isolated bacterial membranes solubilized with 1% DDM, bound to Ni^2+-affinity Chelating Sepharose Fast Flow resin (GE Healthcare, USA), and eluted in buffer consisted of 20 mM Tris-HCl (pH 8.0), 1 mM NaCl, 199 mM KCl, 0.05% DDM and 300 mM imidazole. […] After incubation at room temperature, at the indicated time points, samples were centrifuged and the protein concentration was determined by absorbance measurements at 280 nm. Concomitantly, [^3H]-Leu binding was determined using scintillation proximity assay (SPA) (Quick and Javitch, Proc. Natl. Acad. Sci. USA 104, 3603-3608 (2007)), with the reaction mixture consisted of 5 μL from the respective samples, 33.3 nM [^3H]-Leu (PerkinElmer, USA) and copper chelate (His-Tag) YSi beads (GE Healthcare). […] Normalized results are expressed as mean±SEM (n=2), as illustrated in FIG. 11 (long-term solubility of LeuT WT incubated in the presence of TFA-1, TFA-3, and DDM at (a) CMC+0.04 wt % or (b) CMC+0.2 wt % at room temperature).

For `CC(CCC(=O)NCc1ccc(CNC(=O)CCC(C)C2CCC3C4CCC5CC(OC6OC(CO)C(OC7OC(CO)C(O)C(O)C7O)C(O)C6O)CCC5(C)C4CC(OC4OC(CO)C(OC5OC(CO)C(O)C(O)C5O)C(O)C4O)C23C)cc1)C1CCC2C3CCC4CC(OC5OC(CO)C(OC6OC(CO)C(O)C(O)C6O)C(O)C5O)CCC4(C)C3CC(OC3OC(CO)C(OC4OC(CO)C(O)C(O)C4O)C(O)C3O)C12C` (centres unmarked) [TFA-6a], the “water solubility” value ([1]; Example 4, under the conditions evaluated) was “insoluble”.

For `CCN(CCCN(CC)C(=O)CCC(C)C1CCC2C3CCC4CC(OC5OC(CO)C(OC6OC(CO)C(O)C(O)C6O)C(O)C5O)CCC4(C)C3CC(OC3OC(CO)C(OC4OC(CO)C(O)C(O)C4O)C(O)C3O)C12C)C(=O)CCC(C)C1CCC2C3CCC4CC(OC5OC(CO)C(OC6OC(CO)C(O)C(O)C6O)C(O)C5O)CCC4(C)C3CC(OC3OC(CO)C(OC4OC(CO)C(O)C(O)C4O)C(O)C3O)C12C` (centres unmarked) [TFA-7a], the “CMC” value ([2]; Example 4, Table 3) was 0.013 mM and the “CMC (wt. %)” value ([2]; Example 4, Table 3) was 0.0028 wt. %.

In the case of `CCCCCN(CCCN(CCCCC)C(=O)CCC(C)C1CCC2C3CCC4CC(OC5OC(CO)C(OC6OC(CO)C(O)C(O)C6O)C(O)C5O)CCC4(C)C3CC(OC3OC(CO)C(OC4OC(CO)C(O)C(O)C4O)C(O)C3O)C12C)C(=O)CCC(C)C1CCC2C3CCC4CC(OC5OC(CO)C(OC6OC(CO)C(O)C(O)C6O)C(O)C5O)CCC4(C)C3CC(OC3OC(CO)C(OC4OC(CO)C(O)C(O)C4O)C(O)C3O)C12C` (centres unmarked) [TFA-10a], the “CMC” value ([2]; Example 4, Table 3) was 0.004 mM and the “CMC (wt. %)” value ([2]; Example 4, Table 3) was 0.0009 wt. %.

In the case of `CCN(CCCN(CC)C(=O)CC[C@@H](C)[C@H]1CC[C@H]2[C@@H]3CC[C@@H]4C[C@H](O[C@@H]5O[C@H](CO)[C@@H](O[C@H]6O[C@H](CO)[C@@H](O)[C@H](O)[C@H]6O)[C@H](O)[C@H]5O)CC[C@]4(C)[C@H]3C[C@H](O[C@@H]3O[C@H](CO)[C@@H](O[C@H]4O[C@H](CO)[C@@H](O)[C@H](O)[C@H]4O)[C@H](O)[C@H]3O)[C@]12C)C(=O)CC[C@@H](C)[C@H]1CC[C@H]2[C@@H]3CC[C@@H]4C[C@H](O[C@@H]5O[C@H](CO)[C@@H](O[C@H]6O[C@H](CO)[C@@H](O)[C@H](O)[C@H]6O)[C@H](O)[C@H]5O)CC[C@]4(C)[C@H]3C[C@H](O[C@@H]3O[C@H](CO)[C@@H](O[C@H]4O[C@H](CO)[C@@H](O)[C@H](O)[C@H]4O)[C@H](O)[C@H]3O)[C@]12C` [TFA-2], the “CMC” value ([2]; mean ± SD, n = 3) was 0.013 ± 0.0018 mM, the “CMC (wt %)” value ([2]; mean ± SD, n = 3) was 0.0028 ± 0.00039 wt % and the “Rh (nm), hydrodynamic radius of micelles measured by dynamic light scattering” value [3] was 2.0 ± 0.03 nm.

For `CCCCN(CCCN(CCCC)C(=O)CCC(C)C1CCC2C3CCC4CC(OC5OC(CO)C(OC6OC(CO)C(O)C(O)C6O)C(O)C5O)CCC4(C)C3CC(OC3OC(CO)C(OC4OC(CO)C(O)C(O)C4O)C(O)C3O)C12C)C(=O)CCC(C)C1CCC2C3CCC4CC(OC5OC(CO)C(OC6OC(CO)C(O)C(O)C6O)C(O)C5O)CCC4(C)C3CC(OC3OC(CO)C(OC4OC(CO)C(O)C(O)C4O)C(O)C3O)C12C` (centres unmarked) [TFA-9a], the “CMC” value ([2]; Example 4, Table 3) was 0.01 mM and the “CMC (wt. %)” value ([2]; Example 4, Table 3) was 0.0022 wt. %.

For `CCCCN(CCCN(CCCC)C(=O)CC[C@@H](C)[C@H]1CC[C@H]2[C@@H]3CC[C@@H]4C[C@H](O[C@@H]5O[C@H](CO)[C@@H](O[C@H]6O[C@H](CO)[C@@H](O)[C@H](O)[C@H]6O)[C@H](O)[C@H]5O)CC[C@]4(C)[C@H]3C[C@H](O[C@@H]3O[C@H](CO)[C@@H](O[C@H]4O[C@H](CO)[C@@H](O)[C@H](O)[C@H]4O)[C@H](O)[C@H]3O)[C@]12C)C(=O)CC[C@@H](C)[C@H]1CC[C@H]2[C@@H]3CC[C@@H]4C[C@H](O[C@@H]5O[C@H](CO)[C@@H](O[C@H]6O[C@H](CO)[C@@H](O)[C@H](O)[C@H]6O)[C@H](O)[C@H]5O)CC[C@]4(C)[C@H]3C[C@H](O[C@@H]3O[C@H](CO)[C@@H](O[C@H]4O[C@H](CO)[C@@H](O)[C@H](O)[C@H]4O)[C@H](O)[C@H]3O)[C@]12C` [TFA-3], the “CMC” value ([2]; mean ± SD, n = 3) was 0.007 ± 0.0023 mM, the “CMC (wt %)” value ([2]; mean ± SD, n = 3) was 0.0016 ± 0.00051 wt % and the “maintaining LeuT WT function over 12 days” value [4] was “matched DDM at the lower concentration”. The “Rh (nm), hydrodynamic radius of micelles measured by dynamic light scattering” value [3] was 3.3 ± 0.12 nm.

For `C[C@H](CCC(=O)NCCCNC(=O)CC[C@@H](C)[C@H]1CC[C@H]2[C@@H]3CC[C@@H]4C[C@H](O[C@@H]5O[C@H](CO)[C@@H](O[C@H]6O[C@H](CO)[C@@H](O)[C@H](O)[C@H]6O)[C@H](O)[C@H]5O)CC[C@]4(C)[C@H]3C[C@H](O[C@@H]3O[C@H](CO)[C@@H](O[C@H]4O[C@H](CO)[C@@H](O)[C@H](O)[C@H]4O)[C@H](O)[C@H]3O)[C@]12C)[C@H]1CC[C@H]2[C@@H]3CC[C@@H]4C[C@H](O[C@@H]5O[C@H](CO)[C@@H](O[C@H]6O[C@H](CO)[C@@H](O)[C@H](O)[C@H]6O)[C@H](O)[C@H]5O)CC[C@]4(C)[C@H]3C[C@H](O[C@@H]3O[C@H](CO)[C@@H](O[C@H]4O[C@H](CO)[C@@H](O)[C@H](O)[C@H]4O)[C@H](O)[C@H]3O)[C@]12C` [TFA-0], the “concentration at which a hydrogel forms” value ([1]; in water) was > 0.4 wt %.

In the case of `CC(CCC(=O)N(C)CCCN(C)C(=O)CCC(C)C1CCC2C3CCC4CC(OC5OC(CO)C(OC6OC(CO)C(O)C(O)C6O)C(O)C5O)CCC4(C)C3CC(OC3OC(CO)C(OC4OC(CO)C(O)C(O)C4O)C(O)C3O)C12C)C1CCC2C3CCC4CC(OC5OC(CO)C(OC6OC(CO)C(O)C(O)C6O)C(O)C5O)CCC4(C)C3CC(OC3OC(CO)C(OC4OC(CO)C(O)C(O)C4O)C(O)C3O)C12C` (centres unmarked) [TFA-4a], the “CMC” value ([2]; Example 4, Table 3) was 0.014 mM and the “CMC (wt. %)” value ([2]; Example 4, Table 3) was 0.0030 wt. %.
